Assay results: publication PMC12166061, “Crystallographic fragment screening reveals ligand hotspots in TRIM21 PRY-SPRY domain” (Communications Chemistry, 2025)
Where two headings read alike, the source gives them in different places.

Key:
Type in all cases: binding
[1] = target: T1, murine TRIM21 PRY-SPRY domain (Mus musculus, UniProt Q62191); experiment: Differential scanning fluorimetry (DSF, ΔTm), mouse TRIM21 PRY-SPRY domain
T1 construct: mouse TRIM21 PRY-SPRY domain (residues V291-M470, UniProt-ID: Q62191); made in house; host or cells: E. coli BL21(DE3)
T1 sequence (Q62191 291-470): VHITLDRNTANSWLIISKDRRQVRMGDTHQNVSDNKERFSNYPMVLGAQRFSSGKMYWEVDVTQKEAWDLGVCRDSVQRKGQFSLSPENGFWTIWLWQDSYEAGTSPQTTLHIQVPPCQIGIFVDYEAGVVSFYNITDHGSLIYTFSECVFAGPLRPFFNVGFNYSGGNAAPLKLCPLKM
Experimental: (§1) Briefly, recombinant murine and human TRIM21 PRY-SPRY domain at a concentration of 8 μM were mixed with 2 mM compound in their respective SEC buffer. SYPRO Orange (5000×, Invitrogen) was added as a fluorescence probe (1 µl per mL). Subsequently, temperature-dependent protein unfolding profiles were measured using the QuantStudio™ 5 realtime PCR machine (Thermo Fisher). Excitation and emission filters were set to 465 nm and 590 nm, respectively. The temperature was raised with a step rate of 3 °C per minute. Data points were analysed with the internal software (Thermal Shift SoftwareTM Version 1.4, Thermo Fisher) using the Boltzmann equation to determine the inflection point of the transition curve.

[2] = target: T2, human TRIM21 PRY-SPRY domain (Homo sapiens, UniProt P19474); experiment: Differential scanning fluorimetry (DSF, ΔTm), human TRIM21 PRY-SPRY domain
T2 construct: Human TRIM21 PRY-SPRY domain (residues V287-I465, UniProt-ID: P19474); His6 (N, cleaved yes); SUMO (N, cleaved yes); made in house; host or cells: E. coli BL21(DE3)
T2 sequence (P19474 287-465): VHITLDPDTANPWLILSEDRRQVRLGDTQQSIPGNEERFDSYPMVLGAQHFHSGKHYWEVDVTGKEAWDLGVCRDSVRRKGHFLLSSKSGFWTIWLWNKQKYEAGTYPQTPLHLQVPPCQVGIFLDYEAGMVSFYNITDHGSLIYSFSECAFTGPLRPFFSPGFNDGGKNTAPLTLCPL
Experimental: as §1

His-mTRIM21 PRYSPRY = target: T3, His-mTRIM21 PRYSPRY (Mus musculus, UniProt Q62191); experiment: SPR fragment screening and dose response, mouse TRIM21 PRY-SPRY
T3 construct: mouse TRIM21 PRY-SPRY domain (residues V291-M470, UniProt-ID: Q62191); made in house; host or cells: E. coli BL21(DE3)
T3 sequence (Q62191 291-470): T1 sequence (Q62191 291-470)
Experimental: (§2) His-mTRIM21 PRYSPRY and His-SUMO-hTRIM21 PRY-SPRY were immobilized onto flow channels (FC) FC2, FC3, and FC4 of a Series S sensor chip NTA (Cytiva). […] Proteins (10–20 µg mL^−1 in HBS-P+) were injected at 10 µL min^−1 to achieve response levels of 3500–4300 RU for mTRIM21 and 3600–4000 RU for hTRIM21. Flow channel 1 (FC1) was used as a reference surface. Surface deactivation and nickel stripping were achieved using 1 M ethanolamine and 350 mM ethylenediaminetetraacetic acid (EDTA), respectively.
(§3) Fragment screening was conducted by injecting 500 µM fragments diluted in running buffer (HBS-P+ with 1 mM TCEP and 2% (v/v) dimethyl sulfoxide (DMSO)) over all flow-channels for 30 s at 30 µL/min^−1. To account for surface drift, 50 µM of a control compound (Suramin) was injected every 15 fragment injections, and blank injections were performed every 5 fragments. Responses were analyzed by blank subtraction, reference subtraction (FC1), solvent correction, molecular weight adjustment, and drift correction using Biacore T200 Evaluation Software v3.2.1. The binding threshold for fragment hits was set based on the Suramin-binding response level.
The data was solvent-corrected, reference-subtracted (FC1), and blank-subtracted using the T200 Evaluation Software v3.2.1. Sensorgrams were subsequently replotted using Graphpad v.9 software.

[3] = target: T4, His-SUMO-hTRIM21 PRY-SPRY (Homo sapiens, UniProt P19474); experiment: SPR fragment screening, human TRIM21 PRY-SPRY
T4 construct: Human TRIM21 PRY-SPRY domain (residues V287-I465, UniProt-ID: P19474); made in house; host or cells: E. coli BL21(DE3)
T4 sequence (P19474 287-465): as above
Experimental: as §2, §3

[4] = single dose 500 µM fragment, relative response, suramin reference threshold 100 relative RU

Row | SMILES | Tm-shift mTRIM21 ([1]; 2 mM compound, 8 μM protein) [°C] | Tm-Shift hTRIM21 ([2]; 2 mM compound, 8 μM protein) [°C] | SPR mTRIM21 (Response) (His-mTRIM21 PRYSPRY; [4]) | SPR hTRIM21 (Response) [3, 4] | Tm-shift mTRIM21 [1] [°C] | Tm-Shift hTRIM21 [2] [°C] | SPR mTRIM21 (Response) (His-mTRIM21 PRYSPRY) | SPR hTRIM21 (Response) [3]
1 | Cc1cc(N2CCCCC2)nc(CO)n1 [Fragment Z1980894300] | -0.2 | 0 | 77.01 | 66.59 | – | – | – | –
2 | NS(=O)(=O)c1ccccc1OC(F)F [Fragment Z1003146540] | -0.1 | 0.5 | 35.49 | 38.84 | – | – | – | –
3 | Cc1c(C(C)NS(C)(=O)=O)cnn1C (centres unmarked) [Fragment Z369263636] | -0.1 | 0.1 | 35.15 | 36.54 | – | – | – | –
4 | CC(O)c1cnn(C2CCCC2)c1 (centres unmarked) [Fragment Z2004563941] | -0.2 | 0 | 41.62 | 39.09 | – | – | – | –
5 | CC(=O)NCc1ccnc(N(C)C)c1 [Fragment Z374427992] | -0.1 | -0.1 | 50.3 | 46.45 | – | – | – | –
6 | CCOC(=O)CN1CCS(=O)(=O)CC1 [Fragment Z793778804] | 0 | 0.1 | 30.52 | 29.17 | – | – | – | –
7 | O=C(COC(F)F)N1CC2CCCC2C1 (centres unmarked) [Fragment Z2072621991] | – | – | – | – | 0 | -0.2 | 46.61 | 28.49
8 | CS(=O)(=O)NCCc1ccc(F)cc1 [Fragment Z45705015] | -0.5 | -0.2 | 46.34 | 48.3 | – | – | – | –
9 | CC(=O)N1CCCC(CNS(C)(=O)=O)C1 (centres unmarked) [Fragment Z438096750] | 0 | -0.2 | 42.61 | 40.93 | – | – | – | –
10 | CCc1nc(Cn2ccccc2=O)no1 [Fragment Z1162778919] | -0.2 | -0.1 | 48.28 | 44.97 | – | – | – | –
11 | Nc1ccc(S(=O)(=O)Nc2ccccn2)cc1 [Fragment Z271004858] | -0.1 | -0.1 | 106.3 | 79.01 | – | – | – | –
12 | CC(=O)N1Cc2ccc(N)cc2C1 [Fragment Z1354416068] | 0 | 0.1 | 104.9 | 107.4 | – | – | – | –
13 | CCn1cc(NC(=O)C2CCC2)cn1 [Fragment Z373768900] | – | – | – | – | -0.4 | -0.3 | 20.02 | 21.88
14 | CNC(=O)c1ccc(S(N)(=O)=O)cc1 [Fragment Z165170770] | -0.4 | 0 | 49.37 | 49.74 | – | – | – | –
15 | Cc1nsc(N2CCCNCC2)n1 [Fragment Z1578665941] | -0.1 | 0.1 | 154 | 59.22 | – | – | – | –
16 | O=S1(=O)CCN(Cc2ccco2)CC1 [Fragment Z1568344634] | -0.2 | 0 | 60.76 | 40.64 | – | – | – | –
17 | Cc1cccc(C(=O)N2CCC(C(N)=O)CC2)c1 [Fragment Z32400357] | -0.4 | -0.1 | 57.58 | 52.75 | – | – | – | –
